From PMC8071358, “Targeting of the Essential acpP, ftsZ, and rne Genes in Carbapenem-Resistant Acinetobacter baumannii by Antisense PNA Precision Antibacterials” (Biomedicines, 2021)

Assays:
Type in all cases: cell-based, Acinetobacter baumannii
[1] = tested on: acpP mRNA in CRAB AC44 strain; test: Real-time RT-PCR of target mRNA; conditions: AC44, 1 h treatment, normalised to 16S rRNA, against untreated control
Procedure: (§1) Real time RT-PCR was used to determine the relative expression level of the target gene upon treatment with match BPP-PNA compared to mismatch and untreated controls. The primers for q-PCR were designed to match conserved gene sequences using the AlleleID7 software (Premier Biosoft, San Francisco, CA, USA) (Table S6). Additionally, for more accurate expression of the genes at treatment and untreated conditions, the efficacy of target gene and internal controls primers was calculated by using three consecutive dilutions of the sample cDNA and drawing a standard curve through the slope of the line. […] Statistical analysis was carried out on the gene expression levels normalized to the chosen reference gene (16S rRNA) through −∆Ct analysis. The relative expression of each gene was determined by the 2^−ΔΔCT method. We used the GenEx standard (NormFinder and GeNorm) software (bioMCC, Germany) for analyzing the data.
(§2) An overnight culture of bacteria was diluted 1:100 in MHB medium and was grown with shaking (160 rpm) at 37 °C to reach the OD595 = 0.2. Then, the bacterial culture was treated with different concentrations of BPP-PNA for 1 h and the bacterial cells were harvested by centrifugation and the cell pellet used for RNA extraction.
(§3) Total RNA was isolated using the GeneJET RNA purification kit (ThermoFisher Scientific, Roskilde, Denmark) following the manufacturer’s protocol. RNA samples were treated with DNase for 30 min at 37 °C (Turbo DNA-free kit Ambion/Applied Biosystems, Carlsbad, CA, USA) and then incubated at 72 °C for 5 min to inactivate the DNase. The genomic DNA (gDNA) contamination was checked by polymerase chain reaction (PCR). RNA concentrations were determined by Nanodrop spectrophotometry at 260 nm and purity was checked by determining the absorption ratios at 260/280 nm. Total RNA (0.5 μg) was reverse-transcribed to yield cDNA as template for real-time quantitative PCR using the Quanti Tect reverse transcription kit (Qiagen, Copenhagen, Denmark). The cDNA was diluted 1:50 and used as a template in the reaction. […]

[2] = tested on: ftsZ mRNA in CRAB AC44 strain; test: Real-time RT-PCR of target mRNA; conditions: AC44, 1 h after treatment, normalised to 16S rRNA, against untreated control
Procedure: as §1, §2, §3

CRAB strain AC8 = test: BPP-PNA MIC, broth microdilution; conditions: MHB without cation (Oxoid); 37 °C, 18 h
In short: (§4)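 Broth microdilution used an overnight culture diluted to about 5 × 10^5 CFU/mL in non-cation-adjusted Mueller Hinton Broth, mixed with 2-fold serial dilutions of BPP-PNA (16 to 0.5 µM in the dilution plate, not final). Plates were shaken at 37 °C for 18 h with OD595 read every 20 min.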

CRAB strain AC3 = test: BPP-PNA MIC, broth microdilution; conditions: MHB without cation (Oxoid); 37 °C, 18 h
In short: as §4

CRAB strain AC1 = test: BPP-PNA MIC, broth microdilution; conditions: MHB without cation (Oxoid); 37 °C, 18 h
In short: as §4

CRAB strain AC6 = test: BPP-PNA MIC, broth microdilution; conditions: MHB without cation (Oxoid); 37 °C, 18 h
In short: as §4

CRAB strain AC4 = test: BPP-PNA MIC, broth microdilution; conditions: MHB without cation (Oxoid); 37 °C, 18 h
In short: as §4

CRAB strain AC7 = test: BPP-PNA MIC, broth microdilution; conditions: MHB without cation (Oxoid); 37 °C, 18 h
In short: as §4

CRAB strain AC9 = test: BPP-PNA MIC, broth microdilution; conditions: MHB without cation (Oxoid); 37 °C, 18 h
In short: as §4

CRAB strain AC5 = test: BPP-PNA MIC, broth microdilution; conditions: MHB without cation (Oxoid); 37 °C, 18 h
In short: as §4

Substance | reduction in the level of the acpP mRNA [1] | reduction in ftsZ mRNA [2] | MIC, AC8 (CRAB strain AC8) | MIC, AC3 (CRAB strain AC3) | MIC, AC1 (CRAB strain AC1) | MIC, AC6 (CRAB strain AC6) | MIC, AC4 (CRAB strain AC4) | MIC, AC7 (CRAB strain AC7) | MIC, AC9 (CRAB strain AC9) | MIC, AC5 (CRAB strain AC5)
H-(KFF)3K-eg1-TGATTTGCCAC-NH2 (antisense; N-terminal (KFF)3K-eg1 peptide, C-terminal amide, backbone not given here, further chemistry not given here) [PNA 5639, anti-acpP peptide-PNA conjugate, match, +1 to +11] | > 34 fold | – | – | – | – | – | – | – | – | –
H-(KFF)3K-eg1-GAGGCCATGAC-NH2 (antisense; N-terminal (KFF)3K-eg1 peptide, C-terminal amide, backbone not given here, further chemistry not given here) [PNA 5612, anti-ftsZ peptide-PNA conjugate, match, −3 to +8] | – | up to 60% | 8 µM | 4 µM | 4 µM | 4 µM | 8 µM | 4 µM | 2 µM | 4 µM
